Measurements taken from patent US9763445B2, “Safened herbicidal compositions comprising a pyridine carboxylic acid herbicide” (Dow AgroSciences, LLC, priority 2014, dated 2017).

Assays:
[1] = test system: spring wheat (TRZAS); assay: Postemergence greenhouse trial, % visual injury on spring wheat; type: in vivo, Triticum aestivum
Summary of the method: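 Injury was scored visually (0 = none, 100 = complete kill) 20–22 d after track-sprayer application at 187 L/ha, compared with solvent-sprayed controls. Test plants at the 2–3 true leaf stage; herbicide (g ae/ha) plus cloquintocet-mexyl safener (g ai/ha) in crop-oil-containing spray; expected mixture response by Colby.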

[2] = test system: purple deadnettle (LAMPU); assay: Postemergence greenhouse trial, % visual injury on purple deadnettle; type: in vivo, Lamium purpureum
Protocol: Seeds of the desired test plant species were planted in Sun Gro MetroMix® 306 planting mixture, which typically has a pH of 6.0 to 6.8 and an organic matter content of about 30 percent, in plastic pots with a surface area of 103.2 square centimeters (cm^2). When required to ensure good germination and healthy plants, a fungicide treatment and/or other chemical or physical treatment was applied. The plants were grown for 7-36 days (d) in a greenhouse with an approximate 14-hour (h) photoperiod which was maintained at about 23° C. during the day and 22° C. during the night. Nutrients and water were added on a regular basis and supplemental lighting was provided with overhead metal halide 1000-Watt lamps as necessary. The plants were employed for testing when they reached the second or third true leaf stage.
Weighed amounts of technical material were dissolved in a volume of 97:3 volume per volume (v/v) acetone/dimethyl sulfoxide (DMSO) to stock solutions. […] The concentrated stock solutions were diluted with an aqueous mixture of 1.5% v/v of Agri-dex crop oil concentrate to provide the appropriate application rates. Compound requirements are based upon a 12 milliliter (mL) application volume at a rate of 187 liters per hectare (L/ha). Stocks solutions of the safeners were prepared following the same procedure. Spray solutions of the safeners and experimental compound mixtures were prepared by adding the stock solutions to the appropriate amount of dilution solution to form a 12 mL spray solution in two-way combinations. Formulated compounds were applied to the plant material with an overhead Mandel track sprayer equipped with 8002E nozzles calibrated to deliver 187 L/ha over an application area of 0.503 square meters (m^2) at a spray height of 18 inches (43 centimeters (cm)) above average plant canopy. Control plants were sprayed in the same manner with the solvent blank. All herbicide application (component a) rates are in g ae/ha and all safener (component b) rates are in g ai/ha.
The treated plants and control plants were placed in a greenhouse as described above and watered by sub-irrigation to prevent wash-off of the test compounds. After 20-22 d, the condition of the test plants as compared with that of the control plants was determined visually and scored on a scale of 0 to 100 percent where 0 corresponds to no injury and 100 corresponds to complete kill. […] Colby's equation was used to determine the herbicidal effects expected from the mixtures. […]

[3] = test system: common poppy (PAPRH); assay: Postemergence greenhouse trial, % visual injury on common poppy; type: in vivo, Papaver rhoeas; conditions: for % visual injury, Ob / % visual injury, observed (Ob): PAPRH
Summary of the method: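 Herbicide rates g ae/ha, safener (cloquintocet-mexyl) rates g ai/ha; spray carrier 1.5% v/v crop oil concentrate, 187 L/ha, 2nd–3rd leaf stage. Rating: visual % injury at 20-22 d.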

CCCCCC(C)OC(=O)COc1ccc(Cl)c2cccnc12 (centres unmarked) [CQC-m, cloquintocet-mexyl, reference compound]
0%: % visual injury, Ob ([1]; TRZAS, 4.375 g/ha, applied alone) | % visual injury, Ob ([1]; TRZAS, 8.75 g/ha, applied alone) | % visual injury, Ob ([1]; TRZAS, 17.5 g/ha, applied alone) | % visual injury, Ob ([1]; TRZAS, 35 g/ha, applied alone) | % visual injury, Ob ([1]; TRZAS, 70 g/ha, applied alone) | % visual injury, Ob ([1]; TRZAS, compound 0, CQC-m 4.375 g/ha) | % visual injury, Ob ([1]; TRZAS, compound 0, CQC-m 8.75 g/ha) | % visual injury, Ob ([1]; TRZAS, compound 0, CQC-m 17.5 g/ha) | % visual injury, Ob ([1]; TRZAS, compound 0, CQC-m 35 g/ha) | % visual injury, Ob ([1]; TRZAS, compound 0, CQC-m 70 g/ha) | % visual injury, Ob ([1]; TRZAS, compound 0 g/ha, CQC-m 4.375 g/ha) | % visual injury, Ob ([1]; TRZAS, compound 0 g/ha, CQC-m 8.75 g/ha) | % visual injury, Ob ([1]; TRZAS, compound 0 g/ha, CQC-m 17.5 g/ha) | % visual injury, Ob ([1]; TRZAS, compound 0 g/ha, CQC-m 35 g/ha) | % visual injury, Ob ([1]; TRZAS, compound 0 g/ha, CQC-m 70 g/ha) | % visual injury, observed (Ob) ([1]; TRZAS, compound 8 0 + CQC-m 4.375 g/ha) | % visual injury, observed (Ob) ([1]; TRZAS, compound 8 0 + CQC-m 8.75 g/ha) | % visual injury, observed (Ob) ([1]; TRZAS, compound 8 0 + CQC-m 17.5 g/ha) | % visual injury, observed (Ob) ([1]; TRZAS, compound 8 0 + CQC-m 35 g/ha) | % visual injury, observed (Ob) ([1]; TRZAS, compound 8 0 + CQC-m 70 g/ha) | % visual injury, Ob ([1]; alone, 4.375 g/ha) | % visual injury, Ob ([1]; alone, 8.75 g/ha) | % visual injury, Ob ([1]; alone, 17.5 g/ha) | % visual injury, Ob ([1]; alone, 20 g/ha) | % visual injury, Ob ([1]; alone, 35 g/ha) | % visual injury, Ob ([1]; alone, 40 g/ha) | % visual injury, Ob ([1]; alone, 70 g/ha) | % visual injury, Ob ([1]; alone, 80 g/ha) | % visual injury, Ob ([2]; LAMPU, compound 0, CQC-m 4.375 g/ha) | % visual injury, Ob ([2]; LAMPU, compound 0, CQC-m 8.75 g/ha) | % visual injury, Ob ([2]; LAMPU, compound 0, CQC-m 17.5 g/ha) | % visual injury, Ob ([2]; LAMPU, compound 0, CQC-m 35 g/ha) | % visual injury, Ob ([2]; LAMPU, compound 0, CQC-m 70 g/ha) | % visual injury, Ob ([2]; LAMPU, compound 0 g/ha, CQC-m 4.375 g/ha) | % visual injury, Ob ([2]; LAMPU, compound 0 g/ha, CQC-m 8.75 g/ha) | % visual injury, Ob ([2]; LAMPU, compound 0 g/ha, CQC-m 17.5 g/ha) | % visual injury, Ob ([2]; LAMPU, compound 0 g/ha, CQC-m 35 g/ha) | % visual injury, Ob ([2]; LAMPU, compound 0 g/ha, CQC-m 70 g/ha) | % visual injury, Ob ([2]; alone, 4.375 g/ha) | % visual injury, Ob ([2]; alone, 8.75 g/ha) | % visual injury, Ob ([2]; alone, 17.5 g/ha) | % visual injury, Ob ([2]; alone, 35 g/ha) | % visual injury, Ob ([2]; alone, 70 g/ha) | % visual injury, Ob ([3]; 4.375 g/ha, applied alone) | % visual injury, Ob ([3]; 8.75 g/ha, applied alone) | % visual injury, Ob ([3]; 17.5 g/ha, applied alone) | % visual injury, Ob ([3]; 35 g/ha, applied alone) | % visual injury, Ob ([3]; 70 g/ha, applied alone) | % visual injury, Ob ([3]; compound 0, CQC-m 4.375 g/ha) | % visual injury, Ob ([3]; compound 0, CQC-m 8.75 g/ha) | % visual injury, Ob ([3]; compound 0, CQC-m 17.5 g/ha) | % visual injury, Ob ([3]; compound 0, CQC-m 35 g/ha) | % visual injury, Ob ([3]; compound 0, CQC-m 70 g/ha) | % visual injury, Ob ([3]; compound 0 g/ha, CQC-m 4.375 g/ha) | % visual injury, Ob ([3]; compound 0 g/ha, CQC-m 8.75 g/ha) | % visual injury, Ob ([3]; compound 0 g/ha, CQC-m 17.5 g/ha) | % visual injury, Ob ([3]; compound 0 g/ha, CQC-m 35 g/ha) | % visual injury, Ob ([3]; compound 0 g/ha, CQC-m 70 g/ha) | % visual injury, observed (Ob) ([3]; compound 8 0 + CQC-m 4.375 g/ha) | % visual injury, observed (Ob) ([3]; compound 8 0 + CQC-m 8.75 g/ha) | % visual injury, observed (Ob) ([3]; compound 8 0 + CQC-m 17.5 g/ha) | % visual injury, observed (Ob) ([3]; compound 8 0 + CQC-m 35 g/ha) | % visual injury, observed (Ob) ([3]; compound 8 0 + CQC-m 70 g/ha) | pest or weed control at 4.375 g/ha ([3]; Papaver rhoeas, post-emergence, alone, 4.375 g/ha, read-out: % visual injury, Ob) | pest or weed control at 8.75 g/ha ([3]; Papaver rhoeas, post-emergence, alone, 8.75 g/ha, read-out: % visual injury, Ob)
